Article PMC11882969 (Nature Communications, 2025)
Several values for one entry are separate records, joined by “and”; a condition that tells them apart may be missing. Equal values may be shown once. Read-outs that look alike come from different tables or passages of the source.

Legend:
hCB1 = hCB1 (Homo sapiens, UniProt P21554); test: bioSensAll ebBRET signaling profiling, hCB1; assay type: cell-based; set-up: host or cells: HEK293SL cells, transient PEI transfection; conditions: for Gi1 hCB1 response: Gi1 biosensor; for Gi1 hCB1 / GoB hCB1: single replicate values, FigS6a; for EC50: read-out: EC50 [95% CI]; for Emax: normalized to CP-55,940
CB1 (rCB1) = CB1 (rCB1) (Rattus norvegicus, UniProt P20272); test: Radioligand competition binding, [3H]-CP-55,940, rat brain membranes
Chain of CB1 (rCB1) (P20272 whole entry): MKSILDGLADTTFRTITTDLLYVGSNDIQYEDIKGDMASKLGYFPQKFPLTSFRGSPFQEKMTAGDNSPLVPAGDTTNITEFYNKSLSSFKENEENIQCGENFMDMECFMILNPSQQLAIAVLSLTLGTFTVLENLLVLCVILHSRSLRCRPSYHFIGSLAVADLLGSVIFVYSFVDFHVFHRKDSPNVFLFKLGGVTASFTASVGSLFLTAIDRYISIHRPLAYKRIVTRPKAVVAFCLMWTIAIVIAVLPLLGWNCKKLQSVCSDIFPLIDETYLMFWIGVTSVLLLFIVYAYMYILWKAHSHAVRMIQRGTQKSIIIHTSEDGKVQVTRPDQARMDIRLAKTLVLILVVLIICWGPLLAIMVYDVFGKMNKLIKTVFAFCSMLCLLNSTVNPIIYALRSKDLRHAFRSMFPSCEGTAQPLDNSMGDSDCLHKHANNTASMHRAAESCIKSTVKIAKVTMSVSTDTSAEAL

Chain of hCB1 (P21554 whole entry): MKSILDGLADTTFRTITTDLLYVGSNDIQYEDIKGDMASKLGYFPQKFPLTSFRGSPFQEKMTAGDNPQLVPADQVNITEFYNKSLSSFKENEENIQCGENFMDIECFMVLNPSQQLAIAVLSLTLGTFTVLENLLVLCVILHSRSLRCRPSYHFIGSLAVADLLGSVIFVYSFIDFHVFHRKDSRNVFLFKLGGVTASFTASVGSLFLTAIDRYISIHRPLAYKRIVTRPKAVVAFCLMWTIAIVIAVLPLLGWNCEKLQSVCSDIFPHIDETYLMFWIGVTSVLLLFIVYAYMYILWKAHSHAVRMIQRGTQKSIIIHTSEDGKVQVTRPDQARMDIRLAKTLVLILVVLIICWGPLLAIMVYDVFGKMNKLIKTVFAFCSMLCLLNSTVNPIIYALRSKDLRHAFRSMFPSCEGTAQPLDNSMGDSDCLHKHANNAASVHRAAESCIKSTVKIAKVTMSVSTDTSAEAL

Cc1cc(C(=O)NC(c2ccco2)c2ccco2)nn1-c1cccc(C(F)(F)F)c1 [‘1090]
Gi1 hCB1 response (hCB1; Log [Compound] (M) -4.22186): 110.038 | Gi1 hCB1 response (hCB1; Log [Compound] (M) -4.63927): 112.164 | Gi1 hCB1 response (hCB1; Log [Compound] (M) -5.05788): 98.6907 | Gi1 hCB1 response (hCB1; Log [Compound] (M) -5.47381): 79.5321 | Gi1 hCB1 response (hCB1; Log [Compound] (M) -5.89285): 73.4668 | Gi1 hCB1 response (hCB1; Log [Compound] (M) -6.31878): 61.1346 | Gi1 hCB1 response (hCB1; Log [Compound] (M) -6.72585): 69.6395 | Gi1 hCB1 response (hCB1; Log [Compound] (M) -7.14267): 48.8248 | Gi1 hCB1 response (hCB1; Log [Compound] (M) -7.55284): 35.6645 | Gi1 hCB1 response (hCB1; Log [Compound] (M) -8): 6.211 | Gi1 hCB1 response (hCB1; Log [Compound] (M) -8.22186): 13.1264 | Gi1 hCB1 response (hCB1; Log [Compound] (M) -8.39794): -25.5487 | Gi1 hCB1 response (hCB1; Log [Compound] (M) -8.68787): -2.72 | Gi1 hCB1 response (hCB1; Log [Compound] (M) -9.15521): -19.4162 | Gi1 hCB1 response (hCB1; Log [Compound] (M) -9.61989): 5.584 | Gi1 hCB1 response (hCB1; Log [Compound] (M) -10.0969): -17.9838 | Gi1 hCB1 response (hCB1; Log [Compound] (M) -10.5529): 0.2123 | Gi1 hCB1 response (hCB1; Log [Compound] (M) -11.0177): -1.668 | Gi1 hCB1 response (hCB1; Log [Compound] (M) -11.4949): -1.668 | Gi1 hCB1 response (hCB1; Log [Compound] (M) -11.9208): -2.429 | Gi1 hCB1 response (hCB1; Log [Compound] (M) -12.3979): -6.524 | Gi1 hCB1 response (hCB1; Log [Compound] (M) -12.8861): -4.734 | Gi1 hCB1 response (hCB1; Log [Compound] (M) -13, individual replicate values): -8.293 and -12.478 | Gi1 hCB1 (hCB1; Log [Compound] (M) -4.22186): 93.2514 | GoB hCB1 (hCB1; Log [Compound] (M) -4.22186): 92.9275 | Gi1 hCB1 (hCB1; Log [Compound] (M) -4.63927): 80.9336 | GoB hCB1 (hCB1; Log [Compound] (M) -4.63927): 98.7901 | Gi1 hCB1 (hCB1; Log [Compound] (M) -5.05788): 80.7948 | GoB hCB1 (hCB1; Log [Compound] (M) -5.05788): 84.6911 | Gi1 hCB1 (hCB1; Log [Compound] (M) -5.47381): 75.954 | GoB hCB1 (hCB1; Log [Compound] (M) -5.47381): 85.1767 | Gi1 hCB1 (hCB1; Log [Compound] (M) -5.89285): 77.9273 | GoB hCB1 (hCB1; Log [Compound] (M) -5.89285): 88.8273 | Gi1 hCB1 (hCB1; Log [Compound] (M) -6.31878): 77.4032 | GoB hCB1 (hCB1; Log [Compound] (M) -6.31878): 81.2923 | Gi1 hCB1 (hCB1; Log [Compound] (M) -6.72585): 72.1615 | GoB hCB1 (hCB1; Log [Compound] (M) -6.72585): 72.8221 | Gi1 hCB1 (hCB1; Log [Compound] (M) -7.14267): 54.5866 | GoB hCB1 (hCB1; Log [Compound] (M) -7.14267): 60.3417 | Gi1 hCB1 (hCB1; Log [Compound] (M) -7.55284): 37.9676 | GoB hCB1 (hCB1; Log [Compound] (M) -7.55284): 40.506 | Gi1 hCB1 (hCB1; Log [Compound] (M) -8): 20.7318 | GoB hCB1 (hCB1; Log [Compound] (M) -8): 24.4829 | Gi1 hCB1 (hCB1; Log [Compound] (M) -8.22186): 14.9814 | GoB hCB1 (hCB1; Log [Compound] (M) -8.22186): 13.6209 | Gi1 hCB1 (hCB1; Log [Compound] (M) -8.39794): 11.266 | GoB hCB1 (hCB1; Log [Compound] (M) -8.39794): 8.064 | Gi1 hCB1 (hCB1; Log [Compound] (M) -8.68787): 5.932 | GoB hCB1 (hCB1; Log [Compound] (M) -8.68787): 3.406 | Gi1 hCB1 (hCB1; Log [Compound] (M) -9.15521): 2.879 | GoB hCB1 (hCB1; Log [Compound] (M) -9.15521): 0.583 | Gi1 hCB1 (hCB1; Log [Compound] (M) -9.61989): 1.785 | GoB hCB1 (hCB1; Log [Compound] (M) -9.61989): -2.51 | Gi1 hCB1 (hCB1; Log [Compound] (M) -10.0969): 3.897 | GoB hCB1 (hCB1; Log [Compound] (M) -10.0969): -0.2442 | Gi1 hCB1 (hCB1; Log [Compound] (M) -10.5529): 2.155 | GoB hCB1 (hCB1; Log [Compound] (M) -10.5529): -0.55 | Gi1 hCB1 (hCB1; Log [Compound] (M) -11.0177): 2.633 | GoB hCB1 (hCB1; Log [Compound] (M) -11.0177): 0.2233 | Gi1 hCB1 (hCB1; Log [Compound] (M) -11.4949): 3.6965 | GoB hCB1 (hCB1; Log [Compound] (M) -11.4949): 0.565 | Gi1 hCB1 (hCB1; Log [Compound] (M) -11.9208): 1.261 | GoB hCB1 (hCB1; Log [Compound] (M) -11.9208): 2.507 | Gi1 hCB1 (hCB1; Log [Compound] (M) -12.3979): 3.666 | GoB hCB1 (hCB1; Log [Compound] (M) -12.3979): 1.59 | Gi1 hCB1 (hCB1; Log [Compound] (M) -12.8861): 2.17 | GoB hCB1 (hCB1; Log [Compound] (M) -12.8861): 4.557 | Gi1 hCB1 (hCB1; Log [Compound] (M) -13): 1.415 and 2.093 | GoB hCB1 (hCB1; Log [Compound] (M) -13): 4.719 and 2.903 | pEC50 [95% CI] (hCB1; hCB1 Gi1): 7.5 [7.3 – 7.5] | pEC50 [95% CI] (hCB1; hCB1 GoB): 7.4 [7.3 – 7.5] | pEC50 [95% CI] (hCB1; hCB1 Gz): 6.9 [6.5 – 7.4] | EC50 (hCB1; hCB1 Gi1): 35.6 nM | EC50 (hCB1; hCB1 GoB): 37.3 nM | Emax (hCB1; read-out: Emax [95% CI], hCB1 Gi1): 81% | Emax (hCB1; read-out: Emax [95% CI], hCB1 GoB): 90% | Emax (hCB1; read-out: Emax [95% CI], hCB1 Gz): 115% | pKi [95% CI] (CB1 (rCB1); rCB1): 7.0 [6.7 – 7.4] | Ki (CB1 (rCB1); read-out: Ki [95% CI], rCB1, [3H]-CP-55,940): 90.8 nM
